In US20060014825A1, “Novel k99-5278 substance and a process for producing the same” (priority 2002, published 2006):
Values after ≈ are worked out from the molar mass of the structure shown.

Assays:
Aspergillus niger KF103 = assay: Antifungal activity by liquid culture method (turbidity at 550 nm); assay type: cell-based; conditions: Aspergillus niger KF103, liquid medium, 27° C. for 48 hours; read-out: IC50 for growth of the test organism
Protocol: (§1) Samples dissolved in DMSO were added in the 96 well microplate and the solvent was distilled off in vacuo. Suspension, in which Aspergillus niger KF103 0.3% was inoculated in a medium (glucose 1.0% and yeast extract 0.5%, pH 6.0), 200 μl/well was added and incubated at 27° C. for 48 hours. After the incubation, turbidity was measured by using absorption spectrometer with wavelength at 550 nm. Activity was determined by setting the value without drug addition as 100%, and the concentration shown by 50% turbidity was set as IC50.

Candida albicans KFI = assay: as above; assay type: cell-based; conditions: liquid medium, 27° C. for 24 hours, read-out: IC50 for growth of the test organism
Protocol: as §1, with “Candida albicans KF1” for “Aspergillus niger KF103”, “24” for “48”

Mucor racemosus KF223 = assay: as above; assay type: cell-based; conditions: Mucor racemosus KF223, liquid medium, 27° C. for 24 hours; read-out: IC50 for growth of the test organism
Protocol: as §1, with “Mucor racemosus KF223” for “Aspergillus niger KF103”, “24” for “48”

[1] = test system: Saccharomyces cerevisiae KF26; assay: as above; assay type: cell-based; conditions: Saccharomyces cerevisiae KF26, liquid medium, 27° C. for 24 hours; read-out: IC50 for growth of the test organism
Protocol: as §1, with “Antifungal activities of K99-5278A substance, K99-5278B substance and K99-5278C substance by the liquid medium were performed as follows. • 1) Saccharomyces cerevisiae KF26 was used as a test organism. Samples” for “Samples”, “Saccharomyces cerevisiae KF26” for “Aspergillus niger KF103”, “24” for “48”

Candida albicans KF1 = assay: Antifungal activity by paper disc method; assay type: cell-based; conditions: 10 μg, GY agar medium, 27° C. for 24 hours
Protocol: (§2) Biological properties of K99-5278 substance of the present invention are explained in detail hereinbelow. • (1) Assays of antifungal activities by paper disc method (filter paper disc method)
(§3) Antifungal activities of K99-5278 substance were performed using Aspergillus niger KF103 (ATCC 6275), Mucor racemosus KF223 (IFO 4581), Candida albicans KF1 and Saccharomyces cerevisiae KF26. Aspergillus niger KF103 (ATCC 6275) and Candida albicans KF1 were inoculated at 0.2%, and Mucor racemosus KF223 (IFO 4581) and Saccharomyces cerevisiae KF26 were inoculated at 0.3% in GY agar medium (glucose 1.0%, yeast extract 0.5%, agar 0.8%, pH 6.0). Activities were evaluated by paper disc method (thickness: 6 mm: Advantec Inc., Japan), and a diameter of the inhibition ring was measured after incubating at 27° C. for 24 hours.

[2] = test system: Mucor racemosus KF223 (IFO 4581); assay: Antifungal activity by paper disc method; assay type: cell-based; conditions: IFO4581, 10 μg, GY agar medium, 27° C. for 24 hours
Protocol: as §2, §3

[3] = test system: Saccharomyces cerevisiae KF26; assay: Antifungal activity by paper disc method; assay type: cell-based; conditions: 10 μg, GY agar medium, 27° C. for 24 hours
Protocol: as §2, §3

[4] = test system: Aspergillus niger KF103 (ATCC 6275); assay: Antifungal activity by paper disc method; assay type: cell-based; conditions: ATCC6275, 10 μg, GY agar medium, 27° C. for 24 hours
Protocol: as §2, §3

Structure (SMILES) | Solubility in solvent (Solubility in solvent; chloroform) | Solubility in solvent (Solubility in solvent; dimethyl sulfoxide (DMSO)) | Solubility in solvent (Solubility in solvent; ethyl acetate) | Solubility in solvent (Solubility in solvent; hexane) | Solubility in solvent (Solubility in solvent; methanol) | Solubility in solvent (Solubility in solvent; water) | IC50 (Aspergillus niger KF103) [µg/mL] | IC50 (Candida albicans KFI) [µg/mL] | IC50 (Mucor racemosus KF223) [µg/mL] | IC50 [1] [µg/mL] | zone of inhibition at 10 µg/disc (Candida albicans KF1) [mm] | zone of inhibition at 10 µg/disc [2] [mm] | zone of inhibition at 10 µg/disc [3] [mm] | zone of inhibition at 10 µg/disc [4] [mm]
CC1/C=C/C=C/C=C/C=C/C=C/C(O)CC(O)CC(O)CC(O)CCCC(O)CC(O)C(C)C(=O)OC1C (stereo not drawn) [K99-5278A substance] | slightly soluble | soluble | slightly soluble | insoluble | soluble | insoluble | 0.32 (≈ 0.596 µM) | 61 (≈ 114 µM) | 15 (≈ 27.9 µM) | 7.2 (≈ 13.4 µM) | 9 | 9 | 12 | 18
CCC1OC(=O)C(C)C(O)CC(O)CCCC(O)CC(O)CC(O)C(C)C(O)/C=C/C=C/C=C/C=C/C=C/C1C (stereo not drawn) [K99-5278B substance] | insoluble | soluble | insoluble | insoluble | soluble | insoluble | 0.53 (≈ 0.938 µM) | 100 (≈ 177 µM) | 25 (≈ 44.3 µM) | 11.8 (≈ 20.9 µM) | 7 | 9 | 12 | 16
CC(C)C1OC(=O)C(C)C(O)CC(O)CCCC(O)CC(O)CC(O)C(C)C(O)/C=C/C=C/C=C/C=C/C=C/C1C (stereo not drawn) [K99-5278C substance] | slightly soluble | soluble | slightly soluble | insoluble | soluble | insoluble | 0.75 (≈ 1.3 µM) | 140 (≈ 242 µM) | 35 (≈ 60.5 µM) | 16.6 (≈ 28.7 µM) | 8 | 8 | 9 | 15
